From patent US7728000B2, “Substituted quinolines for the treatment of cancer” (Crystax Pharmaceuticals, priority 2003, dated 2010)

Experiments:
[1] = test system: GLC-4; assay: In vitro cytotoxicity, colorimetric MTT assay on GLC-4; assay type: cell-based; conditions: GLC4, human carcinoma cell line, concentrations up to 100 mikroM, incubation until 72 h, read-out: IC50 (_M)GLC-4
Description: (§1) The in vitro cytotoxicity of the compounds of the present invention was evaluated by colorimetric assays with tetrazol salts (MTT) on Jurkat clon E6-1 and on GLC-4, human leukemia and carcinoma cell lines, respectively. This assay is based on the capacity of live cells to incorporate and reduce the MTT, […], only active in live cells. The intensity of observed colour is directly correlated with the quantity of live cells in the sample as it is described by Mosmann et al., J. Immunol. Methods 1983, vol. 65, p. 55. In all cases the concentrations used were up to 100 mikroM and times of incubation until 72 h.

[2] = test system: Jurkat clon E6-1; assay: In vitro cytotoxicity, colorimetric MTT assay on Jurkat clon E6-1; assay type: cell-based; conditions: human leukemia cell line, concentrations up to 100 mikroM, incubation until 72 h, read-out: IC50 (_M) Jurkat clon E6-1
Description: as §1

melting point [°C]	Structure (SMILES)	IC50 [1] [nM]	IC50 [2] [nM]
108 to 110	CN(CCCNC(=O)c1c2ccccc2nc2ccccc12)CCCNC(=O)c1c2ccccc2nc2c1[nH]c1ccccc12 [Ia, N-[3-[[3-[(9-acridinecarbonyl)amino]propyl]methylamino]propyl]-10H-indolo[3,2-b]quinoline-11-carboxamide]	1630	1420
	CN(C)CCNc1c2nc3ccccc3c-2n(C)c2ccccc12 [Ip, N,N-dimethyl-N′-(5-methyl-5H-indolo[3,2-b]quinolin-11-yl)-ethane-1,2-diamine]	670	260
	CN(C)CCNC(=O)c1c2ccccc2nc2c1[nH]c1ccccc12 [Iu, 10H-indolo[3,2-b]quinoline-11-carboxylic acid (2-dimethylamino-ethyl)amide]	15700	18700
188 to 189	CC(CNC(=O)c1c2ccccc2nc2c1[nH]c1ccccc12)N(C)C (stereo not shown) [Iv, 10H-Indolo[3,2-b]quinoline-11-carboxylic acid (2-dimethylamino-propyl)amide]	16700	
	CC(CN(C)C)Nc1c2nc3ccccc3c-2n(C)c2ccccc12 (stereo not shown) [Iw, N,N-dimethyl-N′-(5-methyl-5H-indolo[3,2-b]quinolin-11-yl)-propane-1,2-diamine]	1080	
